From ChEMBL document CHEMBL4373709 (J Med Chem, 2019) come the findings set out here.

Calls of active or inactive are those of the source. The calls are words filed in the database; no cut-off is given here. Numbered stars: 1 amine (or outer) side, 2 acyl side, 3 side chain; on linkers, the order of the positions; unused ones are H or OH. Square brackets hold non-standard residues; d marks the D form. Peptide text beside a SMILES is read from it. X1 = NCCCC[C@H](N)CN([C@@H](CCCCN)C(=O)[*:2])[*:1]; Tle = CC(C)(C)[C@H](N)C(=O)O

In data set [1] the test system is Mus musculus. Nature of the data set: Suppression of hyperlocomotion in DAT knockout C57BL/6J mouse assessed as reduction in total distance traveled at 10 to 100 mg/kg, po measured up to 2 hrs by open field test. The format is functional, organism-based.
The test system of data set [2] is Mus musculus. The data set can be described thus: Suppression of hyperlocomotion in DAT knockout C57BL/6J mouse assessed as reduction in total distance traveled at 12 mg/kg, ip measured up to 2 hrs by open field test. Type of data set: functional, organism-based.
Data set [3] concerns the target 5-hydroxytryptamine receptor 2B (Homo sapiens) (UniProt P41595). The data set can be described thus: Binding affinity to 5HT2B (unknown origin) at 5 uM relative to control.
The target in data set [4] is T1, Neurotensin receptor type 1 (Homo sapiens, UniProt P30989). Nature of the data set: Positive allosteric modulation of recombinant human NTR1 expressed in HEK293 cells assessed as increase in [125I]-neurotensin binding measured after 45 mins relative to control. The format is cell-based.
Data set [5] has as its target T1, Neurotensin receptor type 1. The data set can be described thus: Allosteric modulation of human GFP-fused PK-tagged Gq-coupled NTR1 expressed in CHOK1 cells assessed as induction of NT (8 to 13) peptide-mediated beta-arrestin recruitment at 0.5 to 356 nM measured after 90 mins by pathhunter assay. Type of data set: cell-based.
The target of data set [6] is G-protein coupled receptor 55 (Homo sapiens) (UniProt Q9Y2T6). Nature of the data set: Allosteric modulation of human PK-tagged Gq-coupled GPR55 expressed in CHOK1 cells assessed as induction of L-alpha-Lysophosphatidylinositol-mediated beta-arrestin recruitment by pathhunter assay. The format is functional, cell-based.
The target in data set [7] is Kappa-type opioid receptor (Homo sapiens) (UniProt P41145). The data set can be described thus: Allosteric modulation of human PK-tagged Gi/Go-coupled KOR expressed in CHOK1 cells assessed as induction of dynorphin A-mediated beta-arrestin recruitment by pathhunter assay. The format is cell-based. Background: Activated receptors often draw arrestin, which recruitment assays turn into a signal.

Data set [8] deals with D(1A) dopamine receptor (Homo sapiens) (UniProt P21728). Nature of the data set: Binding affinity to D1R (unknown origin) at 5 uM relative to control.
The target in data set [9] is T1, Neurotensin receptor type 1. Nature of the data set: Agonist activity at NTR1 (unknown origin) expressed in CHO cells assessed as effect on calcium flux by Fluo-4 NW calcium dye based fluorescence assay. Type of data set: functional, cell-based. In general terms: A change in cytosolic calcium serves as a functional read-out for many receptors and channels.
The target in data set [10] is T2, Alpha-2A adrenergic receptor (Homo sapiens) (UniProt P08913).
T2 sequence (whole entry): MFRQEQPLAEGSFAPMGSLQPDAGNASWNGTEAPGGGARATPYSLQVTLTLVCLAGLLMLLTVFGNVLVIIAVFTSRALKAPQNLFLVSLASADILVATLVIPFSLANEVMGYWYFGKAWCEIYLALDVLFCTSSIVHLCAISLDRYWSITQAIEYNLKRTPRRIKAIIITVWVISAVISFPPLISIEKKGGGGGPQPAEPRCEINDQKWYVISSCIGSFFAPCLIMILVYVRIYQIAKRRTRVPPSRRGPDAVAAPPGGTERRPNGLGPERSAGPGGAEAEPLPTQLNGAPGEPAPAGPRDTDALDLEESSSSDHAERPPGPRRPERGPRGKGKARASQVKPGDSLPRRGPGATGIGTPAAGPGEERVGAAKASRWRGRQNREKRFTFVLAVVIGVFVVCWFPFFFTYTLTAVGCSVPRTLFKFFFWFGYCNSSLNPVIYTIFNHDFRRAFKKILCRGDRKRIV
Nature of the data set: Binding affinity to alpha2A adrenoceptor (unknown origin) at 5 uM relative to control.

The target in data set [11] is Neurotensin receptor type 1 (Mus musculus) (UniProt O88319). The data set can be described thus: Positive allosteric modulation of NTR1 in ICR mouse brain assessed as increase in [125I]-neurotensin binding measured after 20 mins. The format is tissue-based.
For data set [12], the target named is T1, Neurotensin receptor type 1. Nature of the data set: Allosteric modulation of human GFP-fused PK-tagged Gq-coupled NTR1 expressed in CHOK1 cells assessed as induction of NT (8 to 13) peptide-mediated beta-arrestin recruitment measured after 90 mins by pathhunter assay relative to NT (8 to 13) peptide. The format is cell-based.
The target of data set [13] is Histamine H1 receptor (Homo sapiens) (UniProt P35367). The data set can be described thus: Binding affinity to H1R (unknown origin) at 5 uM relative to control.
Data set [14] deals with Neurotensin receptor type 2 (Homo sapiens) (UniProt O95665). The data set can be described thus: Allosteric modulation of NTR2 (unknown origin) assessed as induction of NT (8 to 13) peptide-mediated beta-arrestin recruitment at >80 uM by pathhunter assay.
For data set [15], the target named is G-protein coupled receptor 35 (Homo sapiens) (UniProt Q9HC97). The data set can be described thus: Allosteric modulation of human PK-tagged Gi/Go-coupled GPR35 expressed in CHOK1 cells assessed as induction of zaprinast-mediated beta-arrestin recruitment by pathhunter assay. Type of data set: cell-based.
The target of data set [16] is Neurotensin receptor type 2 (Homo sapiens) (UniProt O95665). Nature of the data set: Positive allosteric modulation of recombinant human NTR2 expressed in HEK293 cells assessed as increase in [125I]-neurotensin binding measured after 3 hrs. The format is cell-based.
A short description of data set [17]: Half life in Sprague-Dawley rat at 30 mg/kg, po by LC-MS/MS analysis. Type of data set: ADME, organism-based. The note with it: in vivo.
The nature of data set [18]: Ratio of drug level in brain to plasma of Sprague-Dawley rat at 30 mg/kg, po measured after 1 hr by LC-MS/MS analysis. Type of data set: ADME, organism-based. The note with it: brain and plasma, read-out: BPR.
A short description of data set [19]: AUC in C57BL/6 mouse at 30 mg/kg, po by LC-MS/MS analysis. Type of data set: ADME, organism-based. The note with it: in vivo.
Data set [20] in a line: Toxicity in DAT knockout C57BL/6J mouse assessed as hypotension at 10 to 100 mg/kg, po. The format is organism-based. The note with it: in vivo.
A short description of data set [21]: Oral bioavailability in C57BL/6 mouse at 30 mg/kg by LC-MS/MS analysis. Particulars: in vivo. The format is ADME, organism-based.
Data set [22] can be described thus: Half life in C57BL/6 mouse at 30 mg/kg, po by LC-MS/MS analysis. The format is ADME, organism-based. The note with it: in vivo.
Data set [23] can be described thus: Ratio of drug level in brain to plasma of C57BL/6 mouse at 30 mg/kg, po measured after 1 hr by LC-MS/MS analysis. Type of data set: ADME, organism-based.
Data set [24] is described as follows: AUC in Sprague-Dawley rat at 30 mg/kg, po by LC-MS/MS analysis. The format is ADME, organism-based. The note with it: in vivo.
Data set [25] is described as follows: Oral bioavailability in Sprague-Dawley rat at 30 mg/kg by LC-MS/MS analysis. The format is ADME, organism-based. The note with it: in vivo.
A short description of data set [26]: Toxicity in DAT knockout C57BL/6J mouse assessed as hypothermia at 10 to 100 mg/kg, po. Type of data set: organism-based. The note with it: in vivo.
Data set [27] is described as follows: Toxicity in DAT knockout C57BL/6J mouse assessed as hypotension at 1 mg/kg, ip. Type of data set: organism-based. The note with it: in vivo.
A short description of data set [28]: Toxicity in DAT knockout C57BL/6J mouse assessed as hypothermia at 1 mg/kg, ip. The format is organism-based. Particulars: in vivo.
Data set [29] can be described thus: Volume of distribution in C57BL/6 mouse at 5 mg/kg, iv by LC-MS/MS analysis. The format is ADME, organism-based. Particulars: in vivo.
The target of data set [30] is T1, Neurotensin receptor type 1. The data set can be described thus: Allosteric modulation of human GFP-fused PK-tagged Gq-coupled NTR1 expressed in CHOK1 cells assessed as induction of NT (8 to 13) peptide-mediated beta-arrestin recruitment measured after 90 mins by pathhunter assay. The format is cell-based.
Data set [31] is described as follows: Clearance in C57BL/6 mouse at 5 mg/kg, iv by LC-MS/MS analysis. Particulars: in vivo. Type of data set: ADME, organism-based.
A short description of data set [32]: Clearance in Sprague-Dawley rat at 5 mg/kg, iv by LC-MS/MS analysis. The format is ADME, organism-based. The note with it: in vivo.
Data set [33] in a line: Ratio of drug level in brain to plasma of Sprague-Dawley rat at 30 mg/kg, po measured after 4 to 8 hrs by LC-MS/MS analysis. Type of data set: ADME, organism-based. Particulars: brain and plasma, read-out: BPR.
The nature of data set [34]: Toxicity in DAT knockout C57BL/6J mouse assessed as hypothermia at 12 mg/kg, ip. Type of data set: organism-based. Particulars: in vivo.
The nature of data set [35]: Toxicity in DAT knockout C57BL/6J mouse assessed as hypotension at 12 mg/kg, ip. Particulars: in vivo. Type of data set: organism-based.
Data set [36] addresses T1, Neurotensin receptor type 1. The data set can be described thus: Positive allosteric modulation of recombinant human NTR1 expressed in HEK293 cells assessed as increase in [125I]-neurotensin binding measured after 45 mins. The format is cell-based.
Data set [37] has as its target Neurotensin receptor type 1 (Rattus norvegicus, UniProt P20789). Nature of the data set: Displacement of [125I]neurotensin from rat brain NTR1. In general terms: Loss of bound radioactivity is the signal in a displacement assay; it reports binding, not function.
Data set [38] can be described thus: Cmax in C57BL/6 mouse at 30 mg/kg, po by LC-MS/MS analysis. Details: dose 30 mg/kg, route oral. The note with it: in vivo. Type of data set: ADME, organism-based.

T1 sequence (P30989 whole entry, the tested form may be a part): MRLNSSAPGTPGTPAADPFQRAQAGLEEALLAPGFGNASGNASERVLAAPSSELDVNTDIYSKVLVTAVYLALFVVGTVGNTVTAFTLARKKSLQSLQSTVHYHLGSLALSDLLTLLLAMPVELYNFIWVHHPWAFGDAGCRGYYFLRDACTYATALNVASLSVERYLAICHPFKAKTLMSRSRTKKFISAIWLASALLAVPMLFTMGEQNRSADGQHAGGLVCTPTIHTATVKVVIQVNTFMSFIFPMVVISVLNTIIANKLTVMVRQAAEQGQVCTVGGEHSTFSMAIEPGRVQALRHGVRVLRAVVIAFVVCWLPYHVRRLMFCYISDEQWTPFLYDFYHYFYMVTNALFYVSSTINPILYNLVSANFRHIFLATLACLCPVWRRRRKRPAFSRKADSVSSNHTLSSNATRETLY
Sequence of Neurotensin receptor type 2 (Homo sapiens) (O95665 whole entry): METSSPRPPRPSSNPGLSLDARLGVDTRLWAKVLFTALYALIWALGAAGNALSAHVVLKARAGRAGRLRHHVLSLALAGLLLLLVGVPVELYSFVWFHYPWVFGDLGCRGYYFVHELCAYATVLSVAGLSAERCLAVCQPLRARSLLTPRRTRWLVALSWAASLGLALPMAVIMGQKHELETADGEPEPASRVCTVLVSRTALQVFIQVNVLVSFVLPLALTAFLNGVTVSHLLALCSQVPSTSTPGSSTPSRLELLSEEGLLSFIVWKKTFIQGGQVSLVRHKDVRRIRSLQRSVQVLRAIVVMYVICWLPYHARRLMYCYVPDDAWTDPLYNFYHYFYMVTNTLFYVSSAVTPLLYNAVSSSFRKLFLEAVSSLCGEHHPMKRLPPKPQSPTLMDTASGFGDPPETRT
Sequence of Neurotensin receptor type 1 (Rattus norvegicus, UniProt P20789) (P20789 whole entry): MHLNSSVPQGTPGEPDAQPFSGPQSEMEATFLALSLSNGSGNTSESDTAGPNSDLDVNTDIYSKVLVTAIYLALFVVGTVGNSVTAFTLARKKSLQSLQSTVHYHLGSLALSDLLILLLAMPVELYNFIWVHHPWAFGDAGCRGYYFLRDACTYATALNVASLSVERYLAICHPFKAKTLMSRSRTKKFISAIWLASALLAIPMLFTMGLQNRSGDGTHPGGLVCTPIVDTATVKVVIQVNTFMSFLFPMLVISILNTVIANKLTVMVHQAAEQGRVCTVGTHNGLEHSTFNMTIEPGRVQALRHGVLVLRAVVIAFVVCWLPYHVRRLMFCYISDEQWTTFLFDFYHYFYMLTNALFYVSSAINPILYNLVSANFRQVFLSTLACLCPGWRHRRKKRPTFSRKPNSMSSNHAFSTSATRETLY
Sequence of 5-hydroxytryptamine receptor 2B (Homo sapiens) (P41595 whole entry): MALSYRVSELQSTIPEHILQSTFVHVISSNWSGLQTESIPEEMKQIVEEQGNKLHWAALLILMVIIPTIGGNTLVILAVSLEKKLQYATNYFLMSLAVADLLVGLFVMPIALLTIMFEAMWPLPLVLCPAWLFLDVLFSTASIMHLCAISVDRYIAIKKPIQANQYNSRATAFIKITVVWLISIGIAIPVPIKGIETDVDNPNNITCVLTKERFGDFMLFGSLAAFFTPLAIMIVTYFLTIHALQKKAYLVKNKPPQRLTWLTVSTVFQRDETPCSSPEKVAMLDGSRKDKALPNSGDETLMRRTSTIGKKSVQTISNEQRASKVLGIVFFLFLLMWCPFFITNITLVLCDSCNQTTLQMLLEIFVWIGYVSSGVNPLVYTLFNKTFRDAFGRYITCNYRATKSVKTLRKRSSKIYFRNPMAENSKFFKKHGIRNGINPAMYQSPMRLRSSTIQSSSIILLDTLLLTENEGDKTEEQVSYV
Sequence of Kappa-type opioid receptor (Homo sapiens) (P41145 whole entry): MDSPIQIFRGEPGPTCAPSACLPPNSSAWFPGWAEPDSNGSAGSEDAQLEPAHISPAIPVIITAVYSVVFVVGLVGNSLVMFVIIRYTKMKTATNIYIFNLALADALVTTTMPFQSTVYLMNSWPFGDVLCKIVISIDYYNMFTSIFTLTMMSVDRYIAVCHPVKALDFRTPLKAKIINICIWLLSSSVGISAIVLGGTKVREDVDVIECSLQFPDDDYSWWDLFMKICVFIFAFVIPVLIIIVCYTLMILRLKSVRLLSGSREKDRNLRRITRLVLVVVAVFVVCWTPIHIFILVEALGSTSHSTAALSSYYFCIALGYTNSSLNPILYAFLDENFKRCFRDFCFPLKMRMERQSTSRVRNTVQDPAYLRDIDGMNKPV
Sequence of Neurotensin receptor type 1 (Mus musculus) (O88319 whole entry, the tested form may be a part): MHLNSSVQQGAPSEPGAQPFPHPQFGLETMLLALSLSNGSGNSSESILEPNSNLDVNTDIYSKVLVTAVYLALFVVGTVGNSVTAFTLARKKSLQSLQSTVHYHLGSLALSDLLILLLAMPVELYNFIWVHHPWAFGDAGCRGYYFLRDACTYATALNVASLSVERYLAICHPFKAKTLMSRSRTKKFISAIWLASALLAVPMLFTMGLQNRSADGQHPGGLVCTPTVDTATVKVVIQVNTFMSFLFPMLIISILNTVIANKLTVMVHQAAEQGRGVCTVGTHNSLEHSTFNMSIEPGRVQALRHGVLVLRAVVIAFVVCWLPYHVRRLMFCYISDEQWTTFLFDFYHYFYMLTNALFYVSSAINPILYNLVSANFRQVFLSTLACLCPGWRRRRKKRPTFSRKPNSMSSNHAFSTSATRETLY
Sequence of G-protein coupled receptor 55 (Homo sapiens) (Q9Y2T6 whole entry): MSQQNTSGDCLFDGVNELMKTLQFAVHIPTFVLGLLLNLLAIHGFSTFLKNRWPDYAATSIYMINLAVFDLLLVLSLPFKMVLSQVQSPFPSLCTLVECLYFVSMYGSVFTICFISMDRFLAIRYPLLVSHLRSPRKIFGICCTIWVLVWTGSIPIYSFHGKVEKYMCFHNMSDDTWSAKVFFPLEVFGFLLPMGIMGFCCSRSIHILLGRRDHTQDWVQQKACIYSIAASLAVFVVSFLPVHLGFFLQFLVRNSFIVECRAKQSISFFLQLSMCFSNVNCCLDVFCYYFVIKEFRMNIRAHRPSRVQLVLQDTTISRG
Sequence of D(1A) dopamine receptor (Homo sapiens) (P21728 whole entry): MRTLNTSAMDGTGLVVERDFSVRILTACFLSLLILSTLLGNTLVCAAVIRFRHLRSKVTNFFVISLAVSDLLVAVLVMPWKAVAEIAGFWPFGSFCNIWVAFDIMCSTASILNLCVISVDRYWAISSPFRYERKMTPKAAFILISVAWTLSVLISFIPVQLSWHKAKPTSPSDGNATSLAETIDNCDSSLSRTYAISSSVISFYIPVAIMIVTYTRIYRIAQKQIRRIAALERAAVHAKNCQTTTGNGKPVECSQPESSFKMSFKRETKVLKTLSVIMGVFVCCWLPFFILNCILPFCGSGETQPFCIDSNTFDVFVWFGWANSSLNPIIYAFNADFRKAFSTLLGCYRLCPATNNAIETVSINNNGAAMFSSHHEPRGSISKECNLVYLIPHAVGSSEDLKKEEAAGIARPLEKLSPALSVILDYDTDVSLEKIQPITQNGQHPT
Sequence of Histamine H1 receptor (Homo sapiens) (P35367 whole entry): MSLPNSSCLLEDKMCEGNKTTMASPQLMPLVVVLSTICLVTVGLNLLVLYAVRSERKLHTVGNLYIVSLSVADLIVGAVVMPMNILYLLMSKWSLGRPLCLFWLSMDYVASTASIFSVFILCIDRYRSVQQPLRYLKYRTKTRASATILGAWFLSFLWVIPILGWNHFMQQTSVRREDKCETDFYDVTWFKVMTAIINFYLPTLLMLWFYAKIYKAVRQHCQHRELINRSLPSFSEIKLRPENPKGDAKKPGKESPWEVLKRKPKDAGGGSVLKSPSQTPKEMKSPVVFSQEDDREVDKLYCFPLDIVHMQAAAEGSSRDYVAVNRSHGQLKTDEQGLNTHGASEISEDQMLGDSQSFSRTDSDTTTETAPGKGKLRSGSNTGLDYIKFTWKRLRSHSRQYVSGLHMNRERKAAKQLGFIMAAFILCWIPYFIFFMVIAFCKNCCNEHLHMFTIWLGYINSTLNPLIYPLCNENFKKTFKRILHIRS
Sequence of G-protein coupled receptor 35 (Homo sapiens) (Q9HC97 whole entry): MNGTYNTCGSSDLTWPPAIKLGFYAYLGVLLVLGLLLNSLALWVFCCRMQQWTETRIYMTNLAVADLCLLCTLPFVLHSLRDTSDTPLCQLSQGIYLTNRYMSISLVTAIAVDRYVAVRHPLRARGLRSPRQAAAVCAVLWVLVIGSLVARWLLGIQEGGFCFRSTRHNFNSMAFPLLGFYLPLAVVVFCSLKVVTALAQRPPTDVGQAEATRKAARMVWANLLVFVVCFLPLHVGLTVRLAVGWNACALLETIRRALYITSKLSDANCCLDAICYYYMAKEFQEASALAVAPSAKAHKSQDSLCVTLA

Broadly, the Emax is the greatest response seen or fitted, relative to the assay's reference. With `COc1ccccc1C1CCN(c2nc(C3(F)CC3)nc3ccc(N(C)CCO)cc23)CC1` [listing 1 of 2 here], the outcome (in the data set with Mus musculus [1]; with Mus musculus [2]; in [11]) was Active. The Activity in [3] was determined as 42%; in [8], 36%; in [10], 55%; in data set [13] it was 75%. Further, the Emax was determined as 140% in data set [4] and 100% in data set [12]. The result in data set [5], in [6], in data set [7], in data set [9], in data set [14] and in [15] was inactive. In data set [16], the result was inactive.

As a reminder, the AUC is concentration integrated over time. A word on the bioavailability: it is the share of a dose that reaches the circulation, judged against a reference dose that is usually intravenous. Lower therefore signals poor availability. As for `COc1ccccc1C1CCN(c2nc(C3(F)CC3)nc3ccc(N(C)CCO)cc23)CC1.Cl`, the t1/2 in data set [17] was 2.23 h; in data set [22], 5.28 h. Besides, the Kp at 1 h in [18] is 0.98. The exposure (AUC) in data set [19] was 4824 ng·h/mL; in [24] it was 2693 ng·h/mL. The Activity entry in data set [20] and in [26] was “Non-Toxic” in each case. Moreover, the bioavailability worked out at 45% in data set [21] (C57BL/6, mouse) and 48% in data set [25]. The BPR in data set [23] was 0.54.

As for `CCOC(=O)[C@H](CC(C)C)NC(=O)[C@@H](NC(=O)[C@H](Cc1c[nH]c2ccccc12)NC(=O)[C@@H]1CCCN1C(=O)[C@H](CCCCN)NC[C@@H](N)CCCCN)C(C)(C)C` (H-[X1]PW[Tle]L-OEt), the Activity result in data set [27] and in data set [28] was “Toxic” each time.

For orientation: Vd means the apparent volume that relates the amount in the body to the concentration in plasma or blood. Low readings indicate confinement near the circulation, high ones extensive tissue distribution. What is called EC50 is the midpoint of the concentration-response curve. The clearance is the rate of elimination divided by the concentration. A high value points to efficient removal. For `COc1ccccc1C1CCN(c2nc(C3(C)CC3)nc3ccc(N(C)CCO)cc23)CC1`, in [29], the distribution volume (Vd) was 7.68 L/kg. For the same compound, the EC50 in data set [30] stood at 98 nM. The compound also registered a clearance in [31] of 79.4 mL/min/kg.

As for `COc1ccccc1C1CCN(c2nc(C3(F)CC3)nc3ccc(N(C)CCO)cc23)CC1` [listing 2 of 2 here], the clearance in [32] was found to be 81 mL/min/kg; in data set [31], 44.8 mL/min/kg. Also, the Kp in [33] amounted to 0.98. The Activity entry in data set [34] and in [35] was “Non-Toxic” in each case. Also, the 50% effective concentration (EC50) came out at 140 nM in data set [36] and 340 nM in [30].

As usually defined, the IC50 is the concentration that inhibits the measured activity by half. A high value points to lower potency. On to `COc1cccc(OC)c1-c1cc(C(=O)NC2(C(=O)O)C3CC4CC(C3)CC2C4)nn1-c1ccnc2cc(Cl)ccc12` (centres undefined) [REMINERTANT], for which the 50% inhibitory concentration (IC50) in data set [37] was 82 nM.

Broadly, the Cmax is the highest concentration seen after dosing. In turn, `COc1ccccc1C1CCN(c2nc(C3(C)CC3)nc3ccc(N(C)CCO)cc23)CC1.Cl` gave an exposure (AUC) in [19] of 3324 ng·h/mL. This compound had a F in data set [21] (mouse) of 52%. Further, the t1/2 in data set [22] was found to be 2.9 h. In addition, the BPR in data set [23] was 0.35. The compound further showed a Cmax in data set [38] of 627 ng/mL.
